Legend:
[1] = tested on: Leptosphaeria nodorum (LEPTNO); experiment: In vitro fungitoxicity (growth inhibition) against Leptosphaeria nodorum in copper-minus and copper-plus medium; assay type: cell-based; conditions: 0.05 μg/mL, 72 h at 25° C.; for LEPTNO % Inhn. Plus Copper Observed: copper-plus medium (CuCl2, 10 μM); for inhibition of growth at 0.05 µg/mL: Parastagonospora nodorum, read-out: LEPTNO % Inhn. Minus Copper Observed
Procedure: In vitro fungitoxicity assays against Leptosphaeria nodorum (LEPTNO) were conducted using the liquid growth medium described by Coursen and Sisler (American Journal of Botany 1960, 47, 541-549) except that copper micronutrient, normally included as CuSO4, was omitted. The medium, termed “copper-minus”, was prepared by dissolving 10 g glucose, 1.5 g K2HPO4, 2 g KH2PO4 and 1 g (NH4)2SO4 in 1 liter of deionized water and treating the solution with 0.5 g Chelex 100 resin (Bio-Rad Analytical grade, 50-100 mesh, sodium form, cat #142-2822) by stirring at room temperature for 1 h. MgSO4.7H2O (0.5 g) was added, and stirring was continued for a further hour. Trace elements (minus CuSO4), and vitamins described by Coursen and Sisler were added from concentrated stock solutions and the entire medium was sterilized by filtration. Medium containing copper was prepared by adding CuCl2.2H2O to the copper-minus medium at 20 μM. Test compounds were dissolved in dimethylsulfoxide (DMSO) then dilutions in copper-minus and copper-plus growth media were prepared as 100 μL aliquots in flat-bottomed 96-well microtiter plates.
LEPTNO was grown on potato dextrose agar in 9 cm diameter petri dishes for 7 days. Sterile deionized water (20 mL) was added to a culture plate and spores suspended by scraping the surface gently with a sterile plastic loop. The resulting suspension was filtered through a double layer of sterile cheesecloth. Filtered spore suspension (5 mL) was centrifuged in a bench centrifuge at 2000 rpm for 2 min. The resulting spore pellet was resuspended in 10 mL sterile deionized water (which had been treated with Chelex 100 resin using 0.5 g resin per liter of water by stirring at room temperature for 1 h), and recentrifuged. The spores were resuspended in copper-minus medium, and the suspension adjusted to 2×10^5 spores per mL. Microtiter plates were inoculated with 100 μL of this spore suspension and the plates incubated at 25° C. for 72 h before assessing fungal growth by measuring light scattering in a NepheloStar plate reader. Growth inhibition was determined by comparing growth in the presence of test compound with growth in control wells lacking test compound.
Results for growth inhibition by test compounds in copper-plus medium (“% Inhn Plus Copper Observed”) were compared with predicted values (“% Inhn Plus Copper Predicted”) that were calculated using the formula set forth by S. R. Colby in Weeds 1967, 15, 20-22 based on results obtained for the same compounds in copper-minus medium (“% Inhn Minus Copper Observed”) and the inhibition attributed to copper chloride alone, as determined by comparing growth in copper-minus and copper-plus media without any test compound across experiments. Results illustrate that hydrazones and copper produce a synergistic fungitoxic effect towards LEPTNO.

Phytophthora infestans = assay type: in vivo, Phytophthora infestans on tomato plant; conditions: 50 ppm hydrazone with 50 μM CuCl2.2H2O; applied 24 h before inoculation; assessed 7 days after inoculation; tomato
Phytophthora capsici = experiment: In vitro fungitoxicity (growth inhibition) against Phytophthora capsici in copper-minus AS and copper-plus AS medium; assay type: cell-based; conditions: CuCl2, 50 uM; no test compound; across experiments
Procedure: In vitro fungitoxicity assays against Phytophthora capsici were conducted using the asparagine-sucrose (AS) medium described in Canadian Journal of Microbiology 1961, 7, 15-25, except that copper micronutrient, normally included as CuSO4, was omitted. The medium, termed “copper-minus AS”, was prepared by dissolving 2 g asparagine, 0.43 g KH2PO4, 0.3 g K2HPO4, 0.4 mL of a 0.5 mg/mL thiamine-HCl solution and 15 g sucrose in 1 liter of deionized water and treating the solution with 0.5 g Chelex 100 resin (Bio-Rad Analytical grade, 50-100 mesh, sodium form, cat #142-2822) by stirring at room temperature for 1 h. The pH was adjusted to 6.4, then MgSO4.7H2O (100 μg/mL), FeSO4.7H2O (1 μg/mL), CaCl2 (50 μg/mL), ZnSO4.7H2O (1 μg/mL), NaMoO4.2H2O (0.2 μg/mL) and MnCl2.4H2O (0.2 μg/mL) were added and the entire medium was sterilized by filtration. […]
Phytophthora capsici was grown on petri plates, 9 cm in diameter, containing 15 mL V-8 agar, pH 7.0, containing 200 mL V-8 juice, 4 g CaCO3, and 20 g agar per liter. […] Microtiter plates were inoculated with 100 μL of spore suspension and incubated at 25° C. for 48 h before assessing fungal growth by measuring light scattering in a NepheloStar plate reader. Growth inhibition was determined by comparing growth in the presence of test compound with growth in control wells lacking test compound. […]

[2] = tested on: Staphylococcus aureus, Escherichia coli, Aspergillus niger and A. flavus; conditions: literature report (Proc. Natl. Acad. Sci. India 1991); cited from earlier work

Row | Structure (SMILES) | TLB % Control (Phytophthora infestans) [%] | LEPTNO % Inhn. Plus Copper Observed [1] [%] | inhibition of growth at 0.05 µg/mL ([1]; copper-minus medium) [%] | other results
1 | O=C(N/N=C/c1cc(Cl)ccc1O)c1ccc(C(F)(F)F)cc1 [Compound 33] |  |  |  | LEPTNO % Inhn. Minus Copper Observed ([1]; copper-minus medium): 20.7%
2 | O=C(N/N=C/c1cc(Cl)cc(Cl)c1O)c1cc(Cl)ccc1Br [Compound 36] | 70.9 | 92.5 | 0 | 
3 | O=C(N/N=C/c1cc(Br)cc(Br)c1O)c1cc(Cl)ccc1Br [Compound 37] | 68.4 | 97.9 | 34.5 | 
4 | O.O.[Cl][Cu][Cl] [CuCl2, CuCl2.2H2O, reference compound] |  |  |  | % Inhn attributed to copper chloride alone (Phytophthora capsici) (Phytophthora capsici): 4.5 ± 7.9%
5 | O=C(NN=Cc1ccccc1O)c1ccccc1O [o-hydroxybenzaldehyde-N-salicyloylhydrazone] |  |  |  | Antimicrobial activity [2]: Antimicrobial activity has been reported
